Measured values from patent US11124510B2, “Alkyl chain modified imidazoquinoline TLR7/8 agonist compounds and uses thereof” (Dynavax Technologies Corporation, priority 2017, dated 2021).

Columns and labels:
[1] = system: CT26 colon carcinoma; assay: Anti-tumor efficacy of squalene oil-in-water nanoemulsion with or without AH-1 peptide in two flank CT26 colon carcinoma-bearing mice; type: in vivo
Description: The effect of repeated weekly doses of intratumorally-delivered pharmaceutical compositions comprised of Compound No. 63-10 formulated in a squalene-based oil-in-water nanoemulsion that was co-formulated with the CT-26 tumor associated AH-1 […] peptide (immunodominant epitope sequence from the endogenous retroviral gene product gp70; see e.g., Rice J, Buchan S and Stevenson F 2002 J Immunol 169:3908-3913) on injected and distal tumor growth inhibition was assessed in CT26 colon carcinoma-bearing Balb/c mice bearing tumors in 2 flanks. All in vivo procedures were conducted in accordance with approved IACUC protocols. The animals were housed in a facility that is accredited by the AALAC. Wild-type female Balb/c mice (15-20 g) were obtained from Envigo (Hayward, Calif.) and acclimated for 2-3 days prior to use.
Pharmaceutical compositions comprised of squalene-based oil-in-water nanoemulsions were made generally as described in Example B2-2. […] Right (injected) and left (distal) tumor volumes were then measured twice weekly from days 8 through day 30 with calipers, with tumor volumes calculated using the formula: length, multiplied by width, multiplied by width, divided by 2.

[2] = system: CT26 colon carcinoma; assay: Anti-tumor efficacy, repeated intratumoral dosing in CT26 colon carcinoma-bearing wild-type mice; type: in vivo; conditions: 0.5-20 μg in 95% sesame oil/5% ethanol
Description: The effect of repeated weekly doses of intratumorally delivered pharmaceutical compositions comprised of Compound No. 63-10, 63-18, or 63-33 formulated in 95% sesame oil/5% ethanol (v/v) on tumor growth inhibition was assessed in syngeneic CT26 colon carcinoma-bearing Balb/c mice. All in vivo procedures were conducted in accordance with approved Institutional Animal Care and Use Committee (IACUC) protocols. The animals were housed in a facility that is accredited by the Association for Accreditation and Laboratory Animal Care (AALAC, Frederick, Md.). Wild-type female Balb/c mice (15-20 gm) were obtained from Envigo (Hayward, Calif.) and acclimated for 2-3 days prior to use.
The pharmaceutical compositions were made with the three compounds at final concentrations of 5, 50, and 200 μg/mL in a manner similar to that described in Example B2-1. […] On day 0, mice were anesthetized with 1% isoflurane and 80,000 CT26 tumor cells in 200 uL of RMPI-1640 culture media plus 2.5% fetal bovine serum were injected subcutaneously in the right flank. Tumors were allowed to grow until they were ˜35 mm^3, at which point animals were assigned to groups to begin treatment. Mice were injected weekly for 4 weeks intratumorally with 100 uL of a pharmaceutical composition comprising 20, 5, or 0.5 μgs of Compound No. 63-10, or 20 or 5 μgs of Compound Nos. 63-18, or 63-33 formulated in 95% sesame oil/5% ethanol (v/v), or a vehicle control, twice weekly for 3 weeks (experimental days 9, 12, 16, 19, 23, and 26). The TLR9 CpG agonist was injected intratumorally with 100 μL of a pharmaceutical composition comprised of 50 μgs of compound formulated in phosphate buffered saline on the same dosing schedule. Tumor sizes were measured twice weekly from days 8 through day 30 with calipers, with tumor volumes calculated using the formula: length, multiplied by width, multiplied by width, divided by 2.

Compound: CCCCCCCCCCCCCC(=O)NCc1ccc(Cn2c(CCCC)nc3c(N)nc4ccccc4c32)cc1 [Compound No. 63-10, N-(4-((4-amino-2-butyl-1H-imidazo[4,5-c]quinolin-1-yl)methyl)benzyl)tetradecanamide]
- tumor growth inhibition in the distal (left) tumor compared to the nanoemulsion vehicle control ([1]; day 23, 50 ng intratumoral days 8, 12, 16, 20): not significantly different from the vehicle control
- tumor growth inhibition in the injected (right) tumor compared to the nanoemulsion vehicle control ([1]; day 27, 50 ng intratumoral days 8, 12, 16, 20): not significantly different from the vehicle control
- CT26 tumor growth control compared to the vehicle control [2]: robust CT26 tumor growth control
